Where two headings read alike, the source gives them in different places.
Key:
Type in all cases: cell-based, human
[1] = test system: COLO205; assay: MTT growth inhibition assay, single agent; details: read-out: Antiproliferative effects IC50s (MTT assay)
Description: (§1) All cell lines were obtained from the ATCC (Rockville, Md.). Cells were grown as monolayers in RPMI medium supplemented with 10% fetal calf serum (Invitrogen, Cergy-Pontoise, France), 2 mM glutamine, 100 units/ml penicillin and 100 μg/ml streptomycin. All cells were split twice a week using trypsin/EDTA (0.25% and 0.02%, respectively; Invitrogen, Cergy-Pontoise, France) and seeded at a concentration of 2.5×10^4 cells/ml. All cell lines were tested regularly for Mycoplasma contamination by PCR using a Stratagene kit (La Jolla, Calif.).
(§2) The MTT assay was carried out as described previously (Hansen M B, Nielsen S E, Berg K. Re-examination and further development of a precise and rapid dye method for measuring cell growth/cell kill. J Immunol Methods. 1989 May 12; 119(2):203-10). In brief, cells were seeded in 96-well tissue culture plates at a density of 2×10^3 cells/well. Cell viability was determined after a 120-hour incubation, by the calorimetric conversion of yellow, water-soluble tetrazolium MTT (3-[4,5-dimethylthiazol-2-yl]-2,5-diphenyltetrazolium bromide; Sigma, Saint-Quentin Fallavier, France), into purple, water-insoluble formazan. This reaction is catalyzed by mitochondrial dehydrogenases and is used to estimate the relative number of viable cells (Mosmann, T, Rapid calorimetric assay for cellular growth and survival: application to proliferation and cytotoxicity assays. J Immunol Methods. 1983 Dec. 16; 65 (1-2):55-63). Cells were incubated with 0.4 mg/ml MTT for 4 hours at 37° C. After incubation, the supernatant was discarded, the cell pellet was resuspended in 0.1 ml of DMSO and the absorbance was measured at 560 nm using a microplate reader (Dynatech, Michigan). Wells with untreated cells or with drug-containing medium without cells were used as positive and negative controls, respectively. Growth inhibition curves were plotted as a percentage of untreated control cells.
(§3) The cells were seeded at 2×10^3 cells/well in 96-well plates and treated 24 hours later with increasing concentrations of CYC682. After incubation times of 1 hour, 24 hours or 48 hours, the cells were washed and post-incubated in drug-free medium for 72 hours. Growth inhibition was then determined by the MTT assay.

[2] = test system: HCC2998; assay: MTT growth inhibition assay, single agent; details: read-out: Antiproliferative effects IC50s (MTT assay)
Description: as §1, §2, §3

[3] = test system: HCT116; assay: MTT growth inhibition assay, single agent; details: read-out: Antiproliferative effects IC50s (MTT assay)
Description: as §1, §2, §3

[4] = test system: HOP62; assay: MTT growth inhibition assay, single agent; details: read-out: Antiproliferative effects IC50s (MTT assay)
Description: as §1, §2, §3

[5] = test system: HOP92; assay: MTT growth inhibition assay, single agent; details: read-out: Antiproliferative effects IC50s (MTT assay)
Description: as §1, §2, §3

[6] = test system: HT29; assay: MTT growth inhibition assay, single agent; details: read-out: Antiproliferative effects IC50s (MTT assay)
Description: as §1, §2, §3

[7] = test system: IGROV1; assay: MTT growth inhibition assay, single agent; details: read-out: Antiproliferative effects IC50s (MTT assay)
Description: as §1, §2, §3

[8] = test system: MCF7; assay: MTT growth inhibition assay, single agent; details: 24 hours exposure, read-out: Antiproliferative effects IC50s (MTT assay)
Description: as §1, §2, §3

[9] = test system: MDA-MB-435; assay: MTT growth inhibition assay, single agent; details: 24 hours exposure, read-out: Antiproliferative effects IC50s (MTT assay)
Description: as §1, §2, §3

[10] = test system: OVCAR1; assay: MTT growth inhibition assay, single agent; details: 24 hours exposure, read-out: Antiproliferative effects IC50s (MTT assay)
Description: as §1, §2, §3

[11] = test system: NSCLC cell line H1299; assay: CNDAC combinations (alamar blue, Calcusyn Combination Index); details: for Combination Index at ED75, CNDAC pretreatment / Combination Index at ED90, CNDAC pretreatment / Combination Index at ED50, CNDAC pretreatment / Combination Index at ED50, Other (named agent) pretreatment / Combination Index at ED75, Other (named agent) pretreatment / Combination Index at ED90, Other (named agent) pretreatment / Combination Index at ED50, Concomitant / Combination Index at ED75, Concomitant / Combination Index at ED90, Concomitant: named agent in combination with CNDAC; for Combination Index at ED75, CNDAC pretreatment / Combination Index at ED90, CNDAC pretreatment / Combination Index at ED50, CNDAC pretreatment: CNDAC 24 h then other agent 72 h; for Combination Index at ED50, CNDAC pretreatment: C.I. <1 synergistic, 1 additive, >1 antagonistic; for Combination Index at ED50, Other (named agent) pretreatment / Combination Index at ED75, Other (named agent) pretreatment / Combination Index at ED90, Other (named agent) pretreatment: named agent 24 h then CNDAC 72 h; for Combination Index at ED50, Concomitant / Combination Index at ED75, Concomitant / Combination Index at ED90, Concomitant: simultaneous treatment 72 h
Description: Experiments in the NSCLC cell lines H1299 or RERF-LC-MA were performed in 96-well plates, with cells seeded at a density of 3,000/well, in DMEM containing 10% (v/v) FCS. Stock solutions of all drugs were made up in dimethylsulfoxide (DMSO), with the exception of gemcitabine, which was dissolved in 0.9% (w/v) sterile saline solution.
For experimental assessment of potential synergistic interactions, the concomitant treatment regime involved simultaneous treatment of cells with CNDAC and the other agent under investigation for 72 h, alongside suitable controls of cells treated with the individual compounds alone for 72 hr. In the sequential treatment regimes, one drug was added to the cells 2 h after plating, and left for 24 h. Media was then aspirated, replaced with fresh media containing the second drug and incubated for 72 h. The two individual treatment controls for the sequential treatment regime involved substituting one of the drug treatments with drug-free media. […] Drug interactions were analysed using the Calcusyn software package (BioSoft, Cambridge, U.K.) described below.

[12] = test system: COLO205 cancer cell line; assay: CYC682 drug-combination study (MTT, Chou and Talalay combination index, isobolograms); details: COLO205; CYC682 given prior to named agent
Description: (§4) For simultaneous drug exposure, cells were seeded at 2×10^3 cells/well in 96-well plates and treated 24 hours later with increasing concentrations of CYC682 alone or with various concentrations of another drug corresponding to the IC20, IC40 or IC60 values. After approximately four doubling times (120 hours), the growth inhibitory effect was measured by the MTT assay.
(§5) Cells were seeded at 2×10^3 cells/well in 96-well plates and allowed to grow for 24 hour. Cells were then exposed to various concentrations of the first drug for 1 hour/24 hours/48 hours, the drug was removed, the cells were washed and the second drug was added. After additional drug exposure, the second drug was removed, the cells were washed and incubated in drug-free medium for 72 hours. Growth inhibition was then determined by the MTT assay.
(§6) Effects of drug combinations were evaluated using the Chou and Talalay method which is based on the median-effect principle (Chou T C, Talalay P. Quantitative analysis of dose-effect relationships: the combined effects of multiple drugs or enzyme inhibitors. Adv Enzyme Regul. 1984; 22:27-55). […] On the basis of the slope of the curve for each drug in a combination, it can be determined whether the drugs have mutually nonexclusive effects (e.g., independent or interactive modes of action).
(§7) The combination index (CI) is then determined by the equation:
(§8) CI=[(C)1/(Cx)1]+[(C)2/(Cx)2]+[α(C)1(C)2/(Cx)1(Cx)2],
(§9) where (Cx)1 is the concentration of drug 1 required to produce an x percent effect of that drug alone, and (C)1, the concentration of drug 1 required to produce the same x percent effect in combination with (C)2. If the mode of action of the drugs is mutually exclusive or nonexclusive, then α is 0 or 1, respectively. CI values will be calculated with this equation using different values of fa (i.e., for different degrees of cell growth inhibition). CI values of <1 indicate synergy, the value of 1 indicates additive effects, and values >1 indicate antagonism. Data were analyzed on an IBM-PC computer using concentration-effect analysis for microcomputer software (Biosoft, Cambridge, UK). For statistical analysis and graphs we will use Instat and Prism software (GraphPad, San Diego, USA). The dose-effect relationships for the drugs tested, alone or in paired combinations, were subjected to median-effect plot analysis to determine their relative potency (IC50), shape (m), and conformity (r) in each selected cell line. As stated above, the IC50 and m values were respectively used to calculate synergism and antagonism on the basis of the CI equation. Results were expressed as the mean±standard deviation of at least 3 experiments performed in duplicate. In each experiment, cells were exposed to the paired combinations for 48 hours as described above. Means and standard deviations were compared using Student's t-test (two-sided p value).
(§10) The effect of sequential and simultaneous exposure (FIG. 2) to CYC682 with oxaliplatin, doxorubicin, docetaxel and gemcitabine was studied in two sensitive colon cancer cell lines—COLO205 and HCT116 using combination indices that represent an affected fraction for the concentration of drugs corresponding to IC50 as previously described by Chou and Talalay.

[13] = test system: HCT116 cancer cell line; assay: as above; details: HCT116
Description: as §4, §5, §6, §7, §8, §9, §10

[14] = Homo sapiens, COLO 205, 24 hours exposure
[15] = Homo sapiens, HCC 2998, 24 hours exposure
[16] = Homo sapiens, HCT-116, 24 hours exposure
[17] = Homo sapiens, HOP-62, 24 hours exposure
[18] = Homo sapiens, HOP-92, 24 hours exposure
[19] = Homo sapiens, HT-29, 24 hours exposure
[20] = Homo sapiens, IGROV-1, 24 hours exposure

## O=c1[nH]cc(F)c(=O)[nH]1 [5-FU, 5-fluorouracil]
[1]; [14]
  IC50: 240 ± 20 µM
[2]; [15]
  IC50: 10 ± 1 µM
[3]; [16]
  IC50: 5.3 ± 1.3 µM
[4]; [17]
  IC50: 118 ± 32 µM
[5]; [18]
  IC50: 11 ± 1 µM
[6]; [19]
  IC50: 24 ± 1 µM
[7]; [20]
  IC50: 29 ± 1 µM
[8]; Homo sapiens
  IC50: 10 ± 1 µM
[9]; Homo sapiens
  IC50: 10 ± 2 µM
[10]; Homo sapiens
  IC50: 24 ± 1 µM

## Nc1ccn([C@@H]2O[C@H](CO)[C@H](O)[C@@H]2O)c(=O)n1 [Ara-C, 4-amino-1-[(2R,3S,4R,5R)-3,4-dihydroxy-5-(hydroxymethyl)oxolan-2-yl]pyrimidin-2-one]
[1]; [14]
  IC50: 28 ± 8 µM
[2]; [15]
  IC50: 3.7 ± 0.5 µM
[3]; [16]
  IC50: 1.2 ± 0.4 µM
[4]; [17]
  IC50: 6.3 ± 2.8 µM
[5]; [18]
  IC50: 1.3 ± 0.3 µM
[6]; [19]
  IC50: 130 ± 40 µM
[7]; [20]
  IC50: 89 ± 21 µM
[8]; Homo sapiens
  IC50: > 300 µM
[9]; Homo sapiens
  IC50: 38 ± 9 µM
[10]; Homo sapiens
  IC50: > 300 µM

## N.N.[Cl][Pt][Cl] [Cisplatin, cis-diamminedichlorplatinum (II)]
[1]; 24 hours exposure
  IC50: 9.5 ± 2.5 µM
[2]; 24 hours exposure
  IC50: 25 ± 5 µM
[3]; 24 hours exposure
  IC50: 9.2 ± 0.9 µM
[4]; 24 hours exposure
  IC50: 9.3 ± 0.9 µM
[5]; 24 hours exposure
  IC50: 4.4 ± 0.4 µM
[6]; 24 hours exposure
  IC50: 25 ± 3 µM
[7]; 24 hours exposure
  IC50: 26 ± 6 µM
[8]
  IC50: 32 ± 2 µM
[9]
  IC50: 13 ± 2.6 µM
[10]
  IC50: 12.1 ± 3.93 µM
[11]; H1299, concomitant treatment
  Interaction with CNDAC at ED50 (in words): weak synergy
[11]; H1299, pre-treatment with named agent
  Interaction with CNDAC at ED50 (in words): synergy
[11]; combination with CNDAC, regime not specified
  Interaction with CNDAC (in words), summary of Table 3: synergistic drug interactions
[11]; H1299
  Combination Index at ED75, CNDAC pretreatment: 1.5
  Combination Index at ED90, CNDAC pretreatment: 13.68
  Combination Index at ED50, CNDAC pretreatment: 1.16
  Combination Index at ED50, Other (named agent) pretreatment: 0.65
  Combination Index at ED75, Other (named agent) pretreatment: 0.93
  Combination Index at ED90, Other (named agent) pretreatment: 1.96
  Combination Index at ED50, Concomitant: 0.77
  Combination Index at ED75, Concomitant: 1.65
  Combination Index at ED90, Concomitant: 7.56

## O=C(O)C(=O)O.[NH-][C@@H]1CCCC[C@H]1[NH-].[Pt+2] [Oxaliplatin]
[1]; 24 hours exposure
  IC50: 8 ± 1.6 µM
[2]; 24 hours exposure
  IC50: 4 ± 1.4 µM
[3]; 24 hours exposure
  IC50: 20 ± 4 µM
[4]; 24 hours exposure
  IC50: 200 ± 40 µM
[5]; 24 hours exposure
  IC50: 1.4 ± 0.2 µM
[6]; 24 hours exposure
  IC50: 60 ± 12 µM
[7]; 24 hours exposure
  IC50: 107 ± 21 µM
[8]
  IC50: 35 ± 7 µM
[9]
  IC50: 37 ± 21 µM
[10]
  IC50: 50 ± 10 µM
[12]
  Interaction with CYC682 (isobologram): synergy
[13]; CYC682 given prior to named agent
  Interaction with CYC682 (isobologram): synergistic activity
[13]; named agent given prior to CYC682
  Interaction with CYC682 (isobologram): synergistic activity

## CCC1=C[C@@H]2CN(C1)Cc1c([nH]c3ccccc13)[C@@](C(=O)OC)(c1cc3c(cc1OC)N(C)[C@H]1[C@@](O)(C(=O)OC)[C@H](OC(C)=O)[C@]4(CC)C=CCN5CC[C@]31[C@@H]54)C2 [Vinorelbine]
[11]; H1299, all three of the treatment regimes tested
  Interaction with CNDAC (in words): synergy
[11]; H1299
  Combination Index at ED75, CNDAC pretreatment: 0.67
  Combination Index at ED90, CNDAC pretreatment: 0.67
  Combination Index at ED50, CNDAC pretreatment: 1.04
  Combination Index at ED50, Other (named agent) pretreatment: 0.60
  Combination Index at ED75, Other (named agent) pretreatment: 0.56
  Combination Index at ED90, Other (named agent) pretreatment: 0.66
  Combination Index at ED50, Concomitant: 0.63
  Combination Index at ED75, Concomitant: 0.97
  Combination Index at ED90, Concomitant: 2.25

Reference: US20090274773A1, “ANTIPROLIFERATIVE COMBINATION COMPRISING CYC-682 AND A CYTOTOXIC AGENT” (Cyclacel Limited, priority 2005, published 2009)
